In patent US4027005A, “Diagnostic agents” (New England Nuclear Corporation, priority 1974, dated 1977):
Read-outs that look alike come from different tables or passages of the source.

Columns and labels:
[1] = cited from earlier work
[2] = Comparative one hour rat organ distribution and organ uptake contrast ratios; format: in vivo; settings: i.v.; for Kidney/G.I. organ uptake contrast ratio / Kidney/liver organ uptake contrast ratio / Kidney/blood organ uptake contrast ratio: activity per gram; for Kidney/blood organ uptake contrast ratio: 60 min; for Blood, organ distribution / G.I., organ distribution / Kidney, organ distribution / Liver, organ distribution: decay corrected, average of at least two animals
Description: Each of the foregoing renal scanning agents is aseptically intravenously injected (0.25 ml containing about 3-5 mCi) into adult rats. One hour later the rats are sacrificed, and the blood collected, weighed and counted. The organs of interest, e.g. the kidney, the liver, and the gastrointestinal tract, are individually weighed and the radioactivity contained therein counted. The amount of radioactivity injected is determined by counting the radioactivity in the syringe before and after injection. The organ distribution values are reported as the percent of the activity injected which is observed in the organ, corrected for the radioactive decay of technetium. The organ uptake contrast ratios are determined by determining the relative activity contained per gram of the organs compared.

[3] = Acute toxicity in mice, intravenous; format: in vivo
[4] = Sub-acute toxicity in mice; format: in vivo; settings: mice, 800, 400 and 80 mg/kg per day for 15 days
[5] = Sub-acute toxicity in dogs; format: in vivo; settings: 19 mg/kg per day for 14 days
[6] = system: infarcted myocardial tissue; assay: Infarction tests: accumulation in infarcted myocardial tissue; format: in vivo, rat; settings: for ratio B: activity per gram of infarcted tissue to activity per gram in the blood: 60 min
Description: In each case a myocardial infarct is produced in adult rats by surgery. In Example 9, doses of about 3-5 mCi each of the glucoheptonate and tetracycline agents respectively are injected three hours after infarct was induced. The animals are sacrificed one hour after injection and the heart removed. The infarcted tissue, which is visibly distinguishable from normal myocardial tissue, was excised, weighed and counted. The normal myocardial tissue was also weighed and its activity counted and the results are reported as the ratio of the activity per gram of the infarcted tissue to the activity per gram of the normal tissue (A), and the ratio of the activity per gram of the infarcted tissue to activity per gram in the blood (B). Example 10 reports similar results, the difference being that in that example the radionuclides were injected into the live rats eighteen hours after the infarct was induced, rather than three hours.

[7] = Urinary excretion in humans; settings: within the first hour after injection, 60 min
[8] = Distribution data in rats of the glucoheptonate agent; settings: within one hour post injection
[9] = Example 9: rat, injected three hours after infarct, sacrificed one hour after injection
[10] = Example 10: rat, injected eighteen hours after infarct

Molecule	Kidney/G.I. organ uptake contrast ratio [2]	Kidney/liver organ uptake contrast ratio [2]	Kidney/blood organ uptake contrast ratio [2]	Blood, organ distribution [2]	G.I., organ distribution [2]	Kidney, organ distribution [2]	Liver, organ distribution [2]	also measured
O=C(O)CNC(=O)c1ccccc1[131I] [131 I-iodohippuran]								accumulation, retention or elimination of prior agents (in words) ([1]; prior art): predominantly eliminated through active secretion by tubular cells
O=C(O)Cn1cc([131I])c(=O)c([131I])c1.OCCNCCO [131 I-iodopyracet]								accumulation, retention or elimination of prior agents (in words) ([1]; in vivo): simultaneous accumulation in surrounding tissue, especially the liver
O=C(O)[C@H](O)[C@@H](O)[C@H](O[C@@H]1O[C@H](CO)[C@H](O)[C@H](O)[C@H]1O)[C@H](O)CO [Example 2]	57	102	82	1.8% of the activity inject	6.2% of the activity inject	23% of the activity inject	1.3% of the activity inject	
O=C(O)[C@H](O)[C@@H](O)[C@H](O)[C@H](O)CO [Example 5]	55	50	40	2.3% of the activity inject	4.8% of the activity inject	16% of the activity inject	1.4% of the activity inject	
stannous glucoheptonate								acute toxicity level (LD50) [3]: about 1500 mg/kg; sub-acute toxicity [4]: no ill effects; sub-acute toxicity [5]: no untoward effects
technetium-99m-stannous-DTPA [Example 7]	65	77	32	1.0% of the activity inject	1.1% of the activity inject	5.0% of the activity inject	0.3% of the activity inject	Kidney/blood organ uptake contrast ratio ([2]; listed as DTPA): 22
technetium-99m-stannous-glucoheptonate [Example 1]	44	115	105	1.1% of the activity inject	5.0% of the activity inject	18% of the activity inject	0.7% of the activity inject	ratio A: activity per gram of infarcted tissue to activity per gram of normal tissue [6, 9]: 10.3; ratio B: activity per gram of infarcted tissue to activity per gram in the blood [6, 9]: 4.5; ratio A: activity per gram of infarcted tissue to activity per gram of normal tissue [6, 10]: 6.7; ratio B: activity per gram of infarcted tissue to activity per gram in the blood [6, 10]: 3.2; preferential accumulation in infarcted tissue (in words) ([6]; Examples 9 and 10): more effective in preferentially accumulating in infarcted, rather than normal, tissue than the tetracycline infarct agent; injected dose excreted in the urine [7]: about 25%; total blood activity [8]: less than 2%
technetium-99m-stannous-tetracycline [Tetracycline complex, reference compound]								ratio A: activity per gram of infarcted tissue to activity per gram of normal tissue [6, 9]: 5.9; ratio A: activity per gram of infarcted tissue to activity per gram of normal tissue [6, 10]: 3.7
